Source: patent publication US20070224297A1, “Method for increasing content of physiologically active substance in ginseng” (priority 2006, published 2007)

Assay: DPPH antioxidant (radical scavenging) test
Conditions: 1 mM; absorbance relative to control, 517 nm, 30 minutes
Procedure: In order to measure the antioxidant effect of the ginseng extract prepared by the method of the present invention, a DPPH (1,1-diphenyl-2-picrylhydrazyl) method was used. DPPH is a color-developed radical, and can be used to directly confirm the radical removing ability of the same. […] An absorbance was measured at 517 nm to determine the amount of the remaining DPPH. The blank of this test is distilled water or a solvent, and a control is an experimental group composed only of DPPH and distilled water without the sample. The antioxidant ability (Radical Scavenging activity: RSA) was determined by the following equation 1, compared with the absorbances of the controls, and the lowered ratios are shown in Table 2. RSA (%)=[Absorbance of Hydroxylate/Absorbance of Control]×100 [Equation 1]

O=C1O[C@H]([C@@H](O)CO)C(O)=C1O [Vitamin C]
RSA (%): 35%
